Results taken from patent US20050065194A1, “Methods of treating conditions associated with an Edg-2 receptor” (priority 2003, published 2005).

How the values were obtained:
Edg 1 receptor = biological target: T1, Edg 1 receptor (Homo sapiens, UniProt P21453); test: LPA/S1P-stimulated calcium mobilization assay (FLIPR), HTC cells expressing Edg 1; format: cell-based; settings: for inhibition of S1P-stimulated calcium increases: FIG. 1 / FIG. 2
T1 construct: expressed in transfected cells; host or cells: HTC (rat hepatoma) cells
T1 sequence (P21453 whole entry): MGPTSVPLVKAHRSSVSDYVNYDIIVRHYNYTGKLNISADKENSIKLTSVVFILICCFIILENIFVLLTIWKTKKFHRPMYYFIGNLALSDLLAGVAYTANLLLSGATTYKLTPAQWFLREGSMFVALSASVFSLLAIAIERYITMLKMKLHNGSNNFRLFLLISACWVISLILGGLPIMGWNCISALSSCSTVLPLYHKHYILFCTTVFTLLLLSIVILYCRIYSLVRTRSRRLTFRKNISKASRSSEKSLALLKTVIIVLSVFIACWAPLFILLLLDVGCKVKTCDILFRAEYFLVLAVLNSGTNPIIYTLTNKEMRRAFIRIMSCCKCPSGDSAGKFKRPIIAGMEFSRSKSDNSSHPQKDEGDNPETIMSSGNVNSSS

Edg-2 receptor = biological target: T2, Edg-2 receptor (Homo sapiens, UniProt Q92633); test: LPA/S1P-stimulated calcium mobilization assay (FLIPR), HTC cells expressing Edg 2; format: cell-based; settings: for inhibition of the Edg 2 receptor: FIG. 1 / FIG. 2; for IC50: HTC cells expressing Edg 2; for Fold Selective: selectivity for Edg-2 relative to other Edg receptors
T2 construct: expressed in transfected cells
T2 sequence (Q92633 whole entry): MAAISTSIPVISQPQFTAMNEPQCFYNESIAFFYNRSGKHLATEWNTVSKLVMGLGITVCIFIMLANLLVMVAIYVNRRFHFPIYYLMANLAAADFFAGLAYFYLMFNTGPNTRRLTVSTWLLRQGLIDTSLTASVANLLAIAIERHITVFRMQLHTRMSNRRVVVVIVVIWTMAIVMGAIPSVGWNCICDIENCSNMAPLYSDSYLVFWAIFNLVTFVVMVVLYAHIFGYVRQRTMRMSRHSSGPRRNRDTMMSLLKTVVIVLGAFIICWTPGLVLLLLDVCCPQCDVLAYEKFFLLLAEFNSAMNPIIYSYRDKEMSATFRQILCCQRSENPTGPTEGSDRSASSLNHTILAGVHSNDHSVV
Text: Specific assays for Edg-2 receptor activity are known to those of skill in the art. For example, cells expressing Edg-2 receptors can be contacted with a membrane-permeant calcium sensitive dye such as Fluo-4 AM or a proprietary calcium dye loading kit (e.g., FLIPR Calcium Assay kit, Molecular Devices, Sunnyvale, Calif.). Intracellular calcium is capable of binding to the dye and emitting fluorescent radiation when illuminated at the appropriate wavelength. The cells can thus be illuminated an appropriate wavelength for the dye and any emitting light can be captured by a cooled CCD camera. Changes in fluorescence indicate changes in intracellular calcium resulting from the activation of an Edg-2 receptor. Such changes can be measured advantageously in whole cells in “real-time” (Berridge et al., Nature Reviews 2000, 1:11-21).
LPA receptors such as Edg-2, couple to calcium effector pathways, and result in increases in intracellular calcium following receptor activation (An, 1998, J. Cell. Biochem. Supp., 30-31: 147-157). This biological response lends itself to a very efficient, high-throughput screen using a Fluorescence Imaging Plate Reader (FLIPR; Molecular Devices, Sunnyvale, Calif.). The FLIPR system is a real-time, cell-based assay system with continuous fluorescence detection using a cooled CCD camera. The FLIPR system was used to developing an Edg-2 receptor screen. Rat hepatoma cells stably expressing Edg-2 receptor were plated on 384-well plates and loaded with a calcium dye loading kit (Molecular Devices, Sunnyvale, Calif.) for 1 hour at room temperature. Cells were then placed on the FLIPR^384 (Molecular Devices, Sunnyvale, Calif.) and excited by an argon laser at 488 nm. The data for the entire 384-well plate was updated every second. An integrated robotic pipettor allowed for simultaneous compound addition into each individual well in the plate.

Edg 3 receptor = biological target: T3, Edg 3 receptor (Homo sapiens, UniProt Q99500); test: LPA/S1P-stimulated calcium mobilization assay (FLIPR), HTC cells expressing Edg 3; format: cell-based; settings: for inhibition of S1P-stimulated calcium increases: FIG. 1 / FIG. 2
T3 construct: expressed in transfected cells; host or cells: HTC (rat hepatoma) cells
T3 sequence (Q99500 whole entry): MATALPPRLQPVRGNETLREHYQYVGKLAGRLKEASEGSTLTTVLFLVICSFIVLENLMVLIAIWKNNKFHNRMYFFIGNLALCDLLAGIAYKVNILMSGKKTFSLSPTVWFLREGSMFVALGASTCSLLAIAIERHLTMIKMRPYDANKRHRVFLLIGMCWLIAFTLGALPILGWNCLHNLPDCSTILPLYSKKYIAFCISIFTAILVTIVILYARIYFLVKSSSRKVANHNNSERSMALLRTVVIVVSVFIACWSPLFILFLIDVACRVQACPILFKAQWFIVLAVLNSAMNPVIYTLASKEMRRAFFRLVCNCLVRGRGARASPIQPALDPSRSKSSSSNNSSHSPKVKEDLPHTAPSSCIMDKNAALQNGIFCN

Edg-4 receptor = biological target: T4, Edg-4 receptor (Homo sapiens, UniProt Q9HBW0); test: LPA/S1P-stimulated calcium mobilization assay (FLIPR), HTC cells expressing Edg 4; format: cell-based; settings: for inhibition of LPA-stimulated calcium increases: FIG. 1 / FIG. 2
T4 construct: expressed in transfected cells; host or cells: HTC (rat hepatoma) cells
T4 sequence (Q9HBW0 whole entry): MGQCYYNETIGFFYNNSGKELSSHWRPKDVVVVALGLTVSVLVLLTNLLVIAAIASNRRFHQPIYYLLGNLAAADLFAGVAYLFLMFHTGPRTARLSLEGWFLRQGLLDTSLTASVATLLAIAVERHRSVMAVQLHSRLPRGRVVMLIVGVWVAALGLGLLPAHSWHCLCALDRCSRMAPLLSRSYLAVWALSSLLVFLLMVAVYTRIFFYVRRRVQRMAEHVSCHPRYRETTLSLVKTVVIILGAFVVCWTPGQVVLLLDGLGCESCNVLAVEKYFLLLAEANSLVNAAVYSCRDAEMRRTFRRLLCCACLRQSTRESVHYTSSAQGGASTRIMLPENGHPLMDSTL

Edg 5 receptor = biological target: T5, Edg 5 receptor (Homo sapiens, UniProt O95136); test: LPA/S1P-stimulated calcium mobilization assay (FLIPR), HTC cells expressing Edg 5; format: cell-based; settings: for inhibition of S1P-stimulated calcium increases: FIG. 1 / FIG. 2
T5 construct: expressed in transfected cells; host or cells: HTC (rat hepatoma) cells
T5 sequence (O95136 whole entry): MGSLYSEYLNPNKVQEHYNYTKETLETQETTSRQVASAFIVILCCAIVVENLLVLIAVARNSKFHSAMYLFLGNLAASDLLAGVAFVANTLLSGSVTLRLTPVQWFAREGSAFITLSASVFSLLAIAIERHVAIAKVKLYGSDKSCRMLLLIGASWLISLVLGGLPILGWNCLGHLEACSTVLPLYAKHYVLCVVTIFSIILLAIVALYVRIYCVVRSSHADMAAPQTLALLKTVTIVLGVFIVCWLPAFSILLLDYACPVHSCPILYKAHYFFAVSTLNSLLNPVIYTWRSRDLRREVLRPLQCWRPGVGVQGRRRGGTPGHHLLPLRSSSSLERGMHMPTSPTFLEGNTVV

Edg-7 receptor = biological target: T6, Edg-7 receptor (Homo sapiens, UniProt Q9UBY5); test: LPA/S1P-stimulated calcium mobilization assay (FLIPR), HTC cells expressing Edg 7; format: cell-based; settings: for inhibition of LPA-stimulated calcium increases: FIG. 1 / FIG. 2
T6 construct: expressed in transfected cells; host or cells: HTC (rat hepatoma) cells
T6 sequence (Q9UBY5 1-353): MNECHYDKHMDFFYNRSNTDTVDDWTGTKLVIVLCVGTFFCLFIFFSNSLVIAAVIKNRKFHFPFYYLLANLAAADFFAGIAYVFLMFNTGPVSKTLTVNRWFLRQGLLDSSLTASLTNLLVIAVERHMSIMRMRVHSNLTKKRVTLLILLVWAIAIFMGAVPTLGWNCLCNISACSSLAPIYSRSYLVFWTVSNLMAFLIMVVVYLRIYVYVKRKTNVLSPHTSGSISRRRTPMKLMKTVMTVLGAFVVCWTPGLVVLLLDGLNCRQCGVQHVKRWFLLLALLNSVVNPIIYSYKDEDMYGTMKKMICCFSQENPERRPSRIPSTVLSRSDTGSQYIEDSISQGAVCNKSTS

Edg 8 receptor = biological target: T7, Edg 8 receptor (Homo sapiens, UniProt Q9H228); test: LPA/S1P-stimulated calcium mobilization assay (FLIPR), HTC cells expressing Edg 8; format: cell-based; settings: for inhibition of S1P-stimulated calcium increases: FIG. 1 / FIG. 2
T7 construct: expressed in transfected cells; host or cells: HTC (rat hepatoma) cells
T7 sequence (Q9H228 whole entry): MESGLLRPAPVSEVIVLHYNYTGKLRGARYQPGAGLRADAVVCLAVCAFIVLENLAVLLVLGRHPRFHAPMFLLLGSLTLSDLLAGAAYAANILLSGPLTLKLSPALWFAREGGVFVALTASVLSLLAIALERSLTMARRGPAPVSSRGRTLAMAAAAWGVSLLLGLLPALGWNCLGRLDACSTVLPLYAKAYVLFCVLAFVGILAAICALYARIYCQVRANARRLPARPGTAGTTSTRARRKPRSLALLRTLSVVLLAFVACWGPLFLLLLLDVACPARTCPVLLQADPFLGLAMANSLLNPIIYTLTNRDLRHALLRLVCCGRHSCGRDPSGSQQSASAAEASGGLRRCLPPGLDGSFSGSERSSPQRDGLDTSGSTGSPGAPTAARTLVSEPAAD

[1] = test system: Adrenergic α1, non-selective; settings: significance criteria ≧50% of max stimulation or inhibition; Table 2
Protocol: (§1) In order to test the selectivity of compounds, various radioligand binding assays were performed using numerous non-Edg receptor targets as listed below.
(§2) A radioligand binding assay was performed using adrenergic α1 according to the method of Greengrass and Bremner 1979, Eur. J. Pharmacol. 55:323-326. A radioligand binding assay was performed using adrenergic α2 according to the method of Boyajian and Leslie, 1987, J. Pharmacol. Exp. Ther. 241:1092-1098. A radioligand binding assay was performed using adrenergic β according to the method of Feve et al., 1994, Proc. Natl. Acad. Sci USA 91:5677-5681. A radioligand binding assay was performed using angiotensin AT2 according to the method of Whitebread et al., 1991, Biochem. Biophys. Res. Comm. 181:1365-1371. A radioligand binding assay was performed using calcium channel Type L, dihydropyridine according to the method of Ehlert et al., 1982, Life Sci. 30:2191-2202. A radioligand binding assay was performed using dopamine D2L according to the method of Bunzo et al., 1988, Nature 336:783-787. A radioligand binding assay was performed using endothelin ETA according to the method of Mihara et al., 1994, J. Pharmacol. Exp Ther. 268:1122-1127. A radioligand binding assay was performed using histamine H1 Central according to the method of Hill et al., 1978, J. Neurochem. 31:997-1004. A radioligand binding assay was performed using Muscarinic non-selective, Central according to the method of Luthin and Wolfe, 1984, J. Pharmacol. Exp. Ther. 228:648-655. A radioligand binding assay was performed using serotonin 5-HT1, non-selective according to the method of Middlemiss, 1984, Eur. J. Pharmacol. 101:289-293).

Adrenergic α2 = settings: significance criteria ≧50% of max stimulation or inhibition; Table 2
Protocol: as §1, §2

Adrenergic β = settings: significance criteria ≧50% of max stimulation or inhibition; Table 2
Protocol: as §1, §2

Angiotensin AT2 = Angiotensin AT2 (Homo sapiens, UniProt P50052); settings: significance criteria ≧50% of max stimulation or inhibition; Table 2
Angiotensin AT2, sequence (P50052 whole entry): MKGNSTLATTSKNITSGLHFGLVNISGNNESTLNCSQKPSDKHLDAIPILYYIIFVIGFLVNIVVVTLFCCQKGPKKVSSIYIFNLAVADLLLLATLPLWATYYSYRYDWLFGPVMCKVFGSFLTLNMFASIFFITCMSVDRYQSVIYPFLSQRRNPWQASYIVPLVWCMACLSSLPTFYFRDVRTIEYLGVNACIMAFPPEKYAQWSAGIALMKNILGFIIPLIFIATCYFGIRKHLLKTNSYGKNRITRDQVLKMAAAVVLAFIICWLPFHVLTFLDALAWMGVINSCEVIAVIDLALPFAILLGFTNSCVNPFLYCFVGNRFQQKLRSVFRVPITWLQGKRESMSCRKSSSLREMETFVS
Protocol: as §1, §2

[2] = test system: Calcium Channel Type L, Dihydropyridine; settings: significance criteria ≧50% of max stimulation or inhibition; Table 2
Protocol: as §1, §2

Dopamine D2L = Dopamine D2L (Homo sapiens, UniProt P14416); settings: significance criteria ≧50% of max stimulation or inhibition; Table 2
Dopamine D2L, sequence (P14416 whole entry): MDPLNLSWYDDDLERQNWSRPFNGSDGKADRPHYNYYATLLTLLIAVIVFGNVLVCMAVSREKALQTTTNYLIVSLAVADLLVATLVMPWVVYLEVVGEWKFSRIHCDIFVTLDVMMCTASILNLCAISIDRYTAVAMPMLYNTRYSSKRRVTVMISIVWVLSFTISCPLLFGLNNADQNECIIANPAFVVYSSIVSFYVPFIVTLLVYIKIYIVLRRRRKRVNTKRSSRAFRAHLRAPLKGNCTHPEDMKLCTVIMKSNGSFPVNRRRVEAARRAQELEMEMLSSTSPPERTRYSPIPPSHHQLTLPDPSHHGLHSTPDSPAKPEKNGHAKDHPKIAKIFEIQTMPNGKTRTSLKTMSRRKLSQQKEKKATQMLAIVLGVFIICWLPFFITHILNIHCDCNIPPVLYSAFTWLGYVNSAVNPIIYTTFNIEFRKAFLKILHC
Protocol: as §1, §2

Endothelin ETA = Endothelin ETA (Homo sapiens, UniProt P25101); settings: significance criteria ≧50% of max stimulation or inhibition; Table 2
Endothelin ETA, sequence (P25101 21-427): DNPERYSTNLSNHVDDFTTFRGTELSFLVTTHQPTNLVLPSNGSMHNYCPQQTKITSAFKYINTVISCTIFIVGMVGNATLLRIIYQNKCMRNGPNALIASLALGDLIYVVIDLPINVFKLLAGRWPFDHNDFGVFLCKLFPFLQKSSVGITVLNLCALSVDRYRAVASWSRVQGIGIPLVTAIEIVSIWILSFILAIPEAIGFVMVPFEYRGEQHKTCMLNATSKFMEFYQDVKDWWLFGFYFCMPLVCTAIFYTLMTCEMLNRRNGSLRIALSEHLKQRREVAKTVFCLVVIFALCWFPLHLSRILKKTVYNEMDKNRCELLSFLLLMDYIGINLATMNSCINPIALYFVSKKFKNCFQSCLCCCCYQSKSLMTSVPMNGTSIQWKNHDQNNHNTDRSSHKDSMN
Protocol: as §1, §2

Histamine H1, Central = Histamine H1, Central (Cavia porcellus, UniProt P31389); settings: significance criteria ≧50% of max stimulation or inhibition; Table 2
Histamine H1, Central, sequence (P31389 whole entry): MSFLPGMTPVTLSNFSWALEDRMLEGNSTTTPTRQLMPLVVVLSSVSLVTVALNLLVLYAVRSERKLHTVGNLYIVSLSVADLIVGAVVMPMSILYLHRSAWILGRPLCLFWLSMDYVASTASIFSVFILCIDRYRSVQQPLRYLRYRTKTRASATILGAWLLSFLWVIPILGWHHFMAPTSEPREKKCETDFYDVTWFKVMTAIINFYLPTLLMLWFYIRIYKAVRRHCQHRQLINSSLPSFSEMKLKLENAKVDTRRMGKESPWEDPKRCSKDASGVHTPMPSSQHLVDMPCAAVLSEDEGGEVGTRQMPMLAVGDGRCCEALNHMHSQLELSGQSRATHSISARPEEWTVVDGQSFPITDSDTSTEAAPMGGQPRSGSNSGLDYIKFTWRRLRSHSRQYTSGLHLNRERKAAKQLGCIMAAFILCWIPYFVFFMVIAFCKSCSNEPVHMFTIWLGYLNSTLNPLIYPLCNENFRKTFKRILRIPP
Protocol: as §1, §2

[3] = test system: Muscarinic non-selective, Central; settings: significance criteria ≧50% of max stimulation or inhibition; Table 2
Protocol: as §1, §2

[4] = test system: Serotonin 5-HT1, non-selective; settings: significance criteria ≧50% of max stimulation or inhibition; Table 2
Protocol: as §1, §2

[5] = test system: various targets tested, including other GPCRs, ion channels, and enzymes; test: Pharmacology profiling (selectivity assays), panel of non-Edg targets of Table 2; format: binding; settings: all targets listed in Table 2 (bradykinin, CB2, chemokine, dopamine, histamine, muscarinic, NPY, opiate, prostanoid, purinergic, serotonin, sigma, sodium channel, tachykinin, growth factors etc.)
[6] = test system: immortalized ovarian surface epithelial cells; test: LPA-stimulated calcium mobilization in immortalized ovarian surface epithelial cells; format: cell-based; settings: 10 μM compound, FIG. 3
[7] = test system: forskolin-stimulated cAMP production; test: cAMP assay: LPA inhibition of forskolin-stimulated cAMP production; format: cell-based; settings: FIG. 4
Text: Because cAMP acts a second messenger in cell signaling, activating protein kinases that in turn phosphorylate enzymes and transcription factors, cAMP concentration is frequently indicative of the activation state of downstream signaling pathways. For GPCRs like the Edg receptors, coupling via a Gαi pathway results in inhibition of adenylyl cyclase activity, the key enzyme involved in breakdown of ATP and formation of cAMP. Thus, assays can be designed to measure inhibition of adenylyl cyclase activity, by first stimulating cAMP formation. One example of a compound, which stimulates cAMP formation is forskolin. Forskolin bypasses the receptor and directly activates adenylyl cyclase. […]
This assay can be performed by any means known to one of skill in the art. […] Following an incubation period, the cells are lysed and the level of cAMP is determined.
The cAMP assay can be performed by any means known to one of skill in the art, for example, by performing a competitive immunoassay. […] Detection can be performed by any appropriate means, including, but not limited to, using a substrate solution and chemiluminescent readout.
Cells were plated in a 96 well format. […] Following a 30-minute incubation period, the cells were lysed and the level of cAMP was determined. […]
Detection was performed using a substrate solution and chemiluminescent readout. […]

In the case of `CCOc1ccccc1N1C(=O)CC(N(O)c2ccccc2)C1=O` (centres unmarked) [Compound 101, 1-(2-Ethoxyphenyl)-3-(hydroxyphenylamino)-pyrrolidine-2,5-dione], the IC50 (Edg 1 receptor) is reported as greater than 20 µM, the “inhibition of S1P-stimulated calcium increases” value (Edg 1 receptor) is reported as “did not inhibit” and the “inhibition of the Edg 2 receptor” value (Edg-2 receptor) is reported as “specifically inhibit”. For the same compound, the IC50 (Edg-2 receptor) was 1.63 µM, the “Fold Selective” value (Edg-2 receptor) was greater than 12.3 Fold and the IC50 (Edg 3 receptor) was greater than 20 µM. For the same compound, the “inhibition of S1P-stimulated calcium increases” value (Edg 3 receptor) was “did not inhibit”, the IC50 (Edg-4 receptor) was greater than 20 µM and the “inhibition of LPA-stimulated calcium increases” value (Edg-4 receptor) was “did not inhibit”. The IC50 (Edg 5 receptor) was greater than 20 µM, the “inhibition of S1P-stimulated calcium increases” value (Edg 5 receptor) was “did not inhibit” and the IC50 (Edg-7 receptor) was greater than 20 µM. For the same compound, the “inhibition of LPA-stimulated calcium increases” value (Edg-7 receptor) was “did not inhibit”, the IC50 (Edg 8 receptor) was greater than 20 µM and the “inhibition of S1P-stimulated calcium increases” value (Edg 8 receptor) was “did not inhibit”. For the same compound, the “activity in radioligand binding assay, Adrenergic Alpha 1, non-selective” value [1] was “no significant activity”, the “activity in radioligand binding assay, Adrenergic Alpha 2, non-selective” value (Adrenergic α2) was “no significant activity” and the “activity in radioligand binding assay, Adrenergic Beta, non-selective” value (Adrenergic β) was “no significant activity”. The “activity in radioligand binding assay, Angiotensin AT2” value (Angiotensin AT2) was “no significant activity”, the “activity in radioligand binding assay, Calcium Channels Type L, DHP” value [2] was “no significant activity” and the “activity in radioligand binding assay, Dopamine D2L” value (Dopamine D2L) was “no significant activity”. The “activity in radioligand binding assay, Endothelin ETA” value (Endothelin ETA) was “no significant activity”, the “activity in radioligand binding assay, H1 central” value (Histamine H1, Central) was “no significant activity” and the “activity in radioligand binding assay, Muscarinic, non-selective, central” value [3] was “no significant activity”. The “activity in radioligand binding assay, Serotonin 5HT1 non-selective” value [4] was “no significant activity” and the “activity at various targets tested, including other GPCRs, ion channels, and enzymes” value [5] was “did not demonstrate any significant activity”.

In the case of `CCn1nc(C)c(-c2ccccc2O)c1-c1ccccc1` [Compound 103, 2-(1-Ethyl-3-methyl-5-phenyl-1H-pyrazol-4-yl)-phenol], the IC50 (Edg 1 receptor) is reported as greater than 20 µM, the “inhibition of S1P-stimulated calcium increases” value (Edg 1 receptor) is reported as “did not inhibit” and the “inhibition of the Edg 2 receptor” value (Edg-2 receptor) is reported as “specifically inhibited”. The IC50 (Edg-2 receptor) was 0.51 µM, the “Fold Selective” value (Edg-2 receptor) was greater than 39.3 Fold and the IC50 (Edg 3 receptor) was greater than 20 µM. For the same compound, the “inhibition of S1P-stimulated calcium increases” value (Edg 3 receptor) was “did not inhibit”, the IC50 (Edg-4 receptor) was greater than 20 µM and the “inhibition of LPA-stimulated calcium increases” value (Edg-4 receptor) was “did not inhibit”. For the same compound, the IC50 (Edg 5 receptor) was greater than 20 µM, the “inhibition of S1P-stimulated calcium increases” value (Edg 5 receptor) was “did not inhibit” and the IC50 (Edg-7 receptor) was greater than 20 µM. The “inhibition of LPA-stimulated calcium increases” value (Edg-7 receptor) was “did not inhibit”, the IC50 (Edg 8 receptor) was greater than 20 µM and the “inhibition of S1P-stimulated calcium increases” value (Edg 8 receptor) was “did not inhibit”. The “inhibition of LPA-stimulated calcium mobilization” value [6] was “almost completely inhibited”, the “reversal of the inhibitory effects of LPA on forskolin-stimulated cAMP production” value [7] was “reverses the inhibitory effects of LPA” and the “activity at various targets tested, including other GPCRs, ion channels, and enzymes” value [5] was “did not demonstrate any significant activity”.

In the case of `CCOc1ccccc1N1C(=O)CC(N(O)c2ccc(F)cc2)C1=O` (centres unmarked) [Compound 111, 1-(2-Ethoxyphenyl)-3-[(4-fluorophenyl)hydroxylamino]pyrrolidine-2,5-dione], the melting point is reported as 123 to 124 °C.

In the case of `O=C(CC(=O)C(F)(F)F)Nc1cc(-c2ccccc2)n[nH]1` [Compound 201, 4,4,4-trifluoro-3-oxo-N-(5-phenyl-2H-pyrazol-3-yl)-butyramide, reference compound], the “inhibition of LPA-stimulated calcium mobilization” value [6] is reported as “little to no effect” and the “reversal of the inhibitory effects of LPA on forskolin-stimulated cAMP production” value [7] is reported as “little to no effect”.
